Results reported in US12012467B2, “Small molecule DCN1 inhibitors and therapeutic methods using the same” (THE REGENTS OF THE UNIVERSITY OF MICHIGAN, priority 2017, dated 2024).
“Also recorded” adds a separate entry of the source. Counter-ions that a name gives are not always drawn.

Legend:
NRF2 = experiment: Western blotting of NRF2 and NRF2-regulated proteins in THLE2 liver cell line; type: cell-based; details: for abundance of NRF2 protein (cullin 3 substrate) / accumulation of NRF2 and NQ01 protein: THLE2 liver cell line; for abundance of NRF2 protein (cullin 3 substrate): dose-range, 24 h, western blotting; for accumulation of NRF2 and NQ01 protein: 10 μM, different time points
Protocol: (§1) A key function of cullin neddylation is to control E3 ubiquitin ligase activity of the cullin complex, which in turn regulates protein turnover in cells. DI-591 (Example 58) was evaluated for its effect on neddylation of 5 different cullins in the THLE2 liver cell line with the data shown in FIG. 1. Immortalized THLE2 liver cell line was treated by a dose-range of DCN1 inhibitor DI-591 or a dose-range of MLN4924 for 24 h. The protein levels of neddylated- and un-neddylated-cullin family proteins and several well-known substrates of cullins were examined by western blotting analysis. GAPDH was used as a loading control. […] Immunohistochemical data confirmed the increased NRF2 protein by Example 58 in liver cells.
NRF2 is a transcriptional factor and a master regulator of antioxidant responses, regulating numerous detoxifying and antioxidant genes, such as the phase II detoxification enzymes heme oxygenase (HO1) and NAD(P)H:quinone oxidoreductase-1 (NQ01) (36). DI-591 (Example 58) was compared to dimethyl fumarate (DMF) for their effect on NRF2 and NQ01 protein levels in the THLE2 liver cell line with DI-591DD included as a control with the data shown in FIG. 3. THLE2 liver cell line was treated by DI-591 at 10 μM, DI-591DD at 10 μM or DMF at 10 μM for different time points.
(§2) Immortalized liver THLE2 (ATCC® CRL-2706™) cell lines was purchased from the ATCC (Rockville, MD). The cell line was maintained in BEGM Bronchial Epithelial Cell Growth Medium from Lonza/Clonetics Corporation (CC3170, Walkersville, MD) supplemented with 10% FBS and pen-strep at 37° C. in a humidified incubator with 5% CO2. Esophageal cancer KYSE140 cell line (ACC 348) was purchased from DSMZ (Braunschweig, Germany). The cell line was maintained RPMI1640 supplemented with 10% FBS and pen-strep at 37° C. in a humidified incubator with 5% CO2.
(§3) Treated cells were lysed by RIPA buffer supplemented with protease inhibitor. The expression level of indicated proteins was examined by western blotting analysis. GAPDH was used as a loading control. Antibodies were purchased: Cullin 1 (sc-11384), Cullin2 (sc-10781), Cullin5 (sc-13014) and Cullin7 (sc-134565) from Santa Cruz Biotech. (Santa Cruz, CA); Cullin 4A (PA5-14542), Cullin 4B (PA5-35239), Cullin9 (PA5-20277), DCN2 (DCUN1D2, PA5-31607) and DCN3 (DCUN1D3, PA5-44000) from ThermoFisher Scientific (Wayne, MI); Cullin 3 (2759), NRF2 (12721), HO-1 (70081), NQ01 (3187), Cyclin E (4129), Bim (2819), Keap1 (8047) and UBC12 (4913) from Cell Signaling Technology (Boston, MA); DCN1 (GWB-E3D700) from GenWay Biotech (San Diego, CA). Results are representative of three independent experiments.

neddylation of cullin 3 = experiment: Western blotting of neddylated and un-neddylated cullin 3 in THLE2 liver cell line; type: cell-based
Protocol: as §1
(§4) DI-591 (Example 58) was further compared to MLN4924 for their ability to inhibit neddylation of cullin 1 and cullin 3 in the THLE2 liver cell line with the data shown in FIG. 2. THLE2 liver cell line was treated by DI-591 at 10 μM or MLN4924 at 0.3 μM for 5 minutes (5m), 30 minutes (30 m), 2 hours (2h) and 24 hours (24h). […] In comparison, MLN4924 inhibits the neddylation of both cullin 1 and 3.
as §2
(§5) Treated cells were lysed by RIPA buffer supplemented with protease inhibitor. The expression level of indicated proteins was examined by western blotting analysis. GAPDH was used as a loading control. Antibodies were purchased: Cullin 1 (sc-11384), Cullin2 (sc-10781), Cullin5 (sc-13014) and Cullin7 (sc-134565) from Santa Cruz Biotech. […]

neddylation of cullin 1 = experiment: Western blotting of neddylated and un-neddylated cullin 1 in THLE2 liver cell line; type: cell-based; details: DI-591 at 10 μM or MLN4924 at 0.3 μM, 5 minutes to 24 hours
Protocol: as §4, §2, §5

Cyclin E, BimEL, CDT1 = experiment: Western blotting of Cul-1 and Cul-4A substrates in THLE2 liver cell line; type: cell-based; details: dose-range, 24 h
Protocol: as §1, §2, §3

[1] = system: mRNA of NRF2, NQ01 and HO-1; experiment: qRT-PCR of NRF2 and NRF2-regulated genes in THLE2 liver cell line; type: cell-based; details: 10 μM, different time points
From the text: FIG. 4 provides qRT-PCR analysis of mRNA levels of NRF2 and NRF2-regulated genes in the THLE2 liver cell line. […] The relative mRNA levels of NRF2, NQ01 and HO-1 were examined by quantitative real-time RT-PCR assay.

DCN1 [2] = target: T1, DCN1 (Homo sapiens (Human), UniProt Q96GG9); experiment: FP protein saturation experiment (Kd of fluorescent probe); details: fluorescein-labeled probe; read-out: Binding affinity to DCN1, Kd
Protocol: The Fluorescence Polarization (FP) competitive binding assays were performed to accurately determine the binding affinities of our DCN1 inhibitors. A novel FAM labeled fluorescent probe compound (46) was designed and synthesized based on one of our potent small molecule DCN1 inhibitors. […] Serial dilutions of proteins were mixed with 46 to a final volume of 200 μl in the assay buffer (100 mM phosphate buffer, pH=6.5, with 0.02% Tween-20 and 2% DMSO). Final probe concentration was 5 nM for both assays. Plates were incubated at room temperature for 30 minutes with gentle shaking to assure equilibrium. FP values in millipolarization units (mP) were measured using the Infinite M-1000 plate reader (Tecan U.S., Research Triangle Park, NC) in Microfluor 1 96-well, black, round-bottom plates (Thermo Scientific, Waltham, MA) at an excitation wavelength of 485 nm and an emission wavelength of 530 nm.
Human DCN1 (residues 58-259) were cloned into a pDEST17 plasmid containing an N-terminal His6 tag. DCN2 (residues 62-259), DCN3 (residues 86-304), DCN4 (residues 102-292) and DCN5 (residues 47-237) were cloned into an N-terminal His6-TEV expression vector. Pure proteins were derived from the same expression and purification protocols. […]

DCN1 [3] = target: T1, DCN1; experiment: Competitive FP binding assay; details: read-out: Binding affinity to DCN1 (IC50 (nM))
Outline: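 FP competition with DCN1 in 100 mM phosphate pH 6.5, 0.02% Tween-20, 2% DMSO, probe 5 nM final. Equilibrated 30 min at room temperature with shaking. DCN1 was His6-tagged (uncleaved), expressed in E. coli Rosetta2 and purified by Ni-NTA and gel filtration.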

[4] = THLE2, DI-591 at 10 μM or MLN4924 at 0.3 μM, 5 minutes to 24 hours

T1 sequence (Q96GG9 58-259): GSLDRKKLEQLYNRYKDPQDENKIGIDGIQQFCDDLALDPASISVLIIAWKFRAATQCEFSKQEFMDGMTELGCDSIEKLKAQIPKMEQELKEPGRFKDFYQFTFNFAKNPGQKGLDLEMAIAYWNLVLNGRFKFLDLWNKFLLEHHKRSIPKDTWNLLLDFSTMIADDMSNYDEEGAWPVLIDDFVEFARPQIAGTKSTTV

Compound | abundance of NRF2 protein (cullin 3 substrate) (NRF2) | neddylation of cullin 3 (neddylation of cullin 3; [4]) | neddylation of cullin 1 (neddylation of cullin 1) | protein levels of Cyclin E, BimEL and CDT1 (substrates of Cul-1 and Cul-4A) (Cyclin E, BimEL, CDT1) | accumulation of NRF2 and NQ01 protein (NRF2) | mRNA level of NRF2 [1] | mRNA levels of NQ01 and HO1 (NRF2-regulated genes) [1] | other results
NS(=O)(=O)OC[C@@H]1C[C@@H](n2ccc3c(N[C@H]4CCc5ccccc54)ncnc32)C[C@@H]1O [MLN4924, reference compound] | induces accumulation | inhibits | inhibits | induces accumulation | – | – | – | –
COC(=O)/C=C/C(=O)OC [Dimethyl fumarate, dimethyl fumarate, reference compound] | – | – | – | – | stimulates the accumulation | – | – | accumulation of NRF2 and NQ01 protein (NRF2; listed as dimethyl fumarate): stimulate the accumulation
CCC(=O)N[C@@H](Cc1nc2ccc(C(C)C)cc2s1)C(=O)N[C@H](CNC(=O)CCN1CCOCC1)C1CCCCC1 [Example 58, (S)—N—((S)-1-cyclohexyl-2-(3-morpholinopropanamido)ethyl)-3-(6-isopropylbenzo[d]thiazol-2-yl)-2-propionamidopropanamide] | induces upregulation; also recorded: selectively increased | rapidly inhibits | little effect | no or minimal effect | stimulate the accumulation | no effect | upregulates; also recorded: clearly increases | NRF2 protein, immunohistochemical data (NRF2; liver cells): increased; neddylation of cullin 3 (neddylation of cullin 3; THLE2 liver cell line, dose-range, 24 h): selectively and dose-dependently inhibits
CCC(=O)N[C@H](Cc1nc2ccc(C(C)C)cc2s1)C(=O)N[C@@H](CNC(=O)CCN1CCOCC1)C1CCCCC1 [Example 123, (R)—N—((R)-1-cyclohexyl-2-(3-morpholinopropanamido)ethyl)-3-(6-isopropylbenzo[d]thiazol-2-yl)-2-propionamidopropanamide] | no effect | – | – | no effect | not | no effect | not | –
CCC(=O)N[C@@H](Cc1nc2ccc(C(C)C)cc2s1)C(=O)N[C@H](CNC(=O)C1CCN(CCOCCOCCOCCNC(=O)c2ccc3c(c2)C(=O)OC32c3ccc(O)cc3Oc3cc(O)ccc32)CC1)C1CCCCC1 [Example 127, N—((S)-2-cyclohexyl-2-((S)-3-(6-isopropylbenzo[d]thiazol-2-yl)-2-propionamidopropanamido)ethyl)-1-(1-(3′,6′-dihydroxy-3-oxo-3H-spiro [isobenzofuran-1,9′-xanthen]-5-yl)-1-oxo-5,8,11-trioxa-2-azatridecan-13-yl)piperidine-4-carboxamide] | – | – | – | – | – | – | – | Kd (DCN1 [2]): 21.9 nM
CCC(=O)N[C@H](CNC(=O)[C@@H]1CCCCN1)Cc1nc2ccc(C(C)C)cc2s1 [Example 118] | – | – | – | – | – | – | – | IC50 (DCN1 [3]): 3110 nM
